The values below come from ChEMBL document CHEMBL1201862, “PubChem BioAssay data set” (2004).

Experiment [1] concerns the target Tyrosine-protein kinase Lck (Homo sapiens, UniProt P06239). The format is functional.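 Also: lck was assayed as one member of a kinase panel.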
The target in experiment [2] is Serine/threonine-protein kinase PAK 4 (Homo sapiens, UniProt O96013). Type of experiment: functional.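 Also: value obtained within a kinome profiling panel in which PAK4 was one of the panel members.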
In experiment [3] the target is Mitogen-activated protein kinase 9 (Homo sapiens, UniProt P45984). Type of experiment: functional.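 Also: value from a kinome panel profiling assay, MAPK9 panel entry.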
Experiment [4] deals with T1, Serine/threonine-protein kinase TAO1 (Homo sapiens, UniProt Q7L7X3).
T1 sequence (Q7L7X3 whole entry): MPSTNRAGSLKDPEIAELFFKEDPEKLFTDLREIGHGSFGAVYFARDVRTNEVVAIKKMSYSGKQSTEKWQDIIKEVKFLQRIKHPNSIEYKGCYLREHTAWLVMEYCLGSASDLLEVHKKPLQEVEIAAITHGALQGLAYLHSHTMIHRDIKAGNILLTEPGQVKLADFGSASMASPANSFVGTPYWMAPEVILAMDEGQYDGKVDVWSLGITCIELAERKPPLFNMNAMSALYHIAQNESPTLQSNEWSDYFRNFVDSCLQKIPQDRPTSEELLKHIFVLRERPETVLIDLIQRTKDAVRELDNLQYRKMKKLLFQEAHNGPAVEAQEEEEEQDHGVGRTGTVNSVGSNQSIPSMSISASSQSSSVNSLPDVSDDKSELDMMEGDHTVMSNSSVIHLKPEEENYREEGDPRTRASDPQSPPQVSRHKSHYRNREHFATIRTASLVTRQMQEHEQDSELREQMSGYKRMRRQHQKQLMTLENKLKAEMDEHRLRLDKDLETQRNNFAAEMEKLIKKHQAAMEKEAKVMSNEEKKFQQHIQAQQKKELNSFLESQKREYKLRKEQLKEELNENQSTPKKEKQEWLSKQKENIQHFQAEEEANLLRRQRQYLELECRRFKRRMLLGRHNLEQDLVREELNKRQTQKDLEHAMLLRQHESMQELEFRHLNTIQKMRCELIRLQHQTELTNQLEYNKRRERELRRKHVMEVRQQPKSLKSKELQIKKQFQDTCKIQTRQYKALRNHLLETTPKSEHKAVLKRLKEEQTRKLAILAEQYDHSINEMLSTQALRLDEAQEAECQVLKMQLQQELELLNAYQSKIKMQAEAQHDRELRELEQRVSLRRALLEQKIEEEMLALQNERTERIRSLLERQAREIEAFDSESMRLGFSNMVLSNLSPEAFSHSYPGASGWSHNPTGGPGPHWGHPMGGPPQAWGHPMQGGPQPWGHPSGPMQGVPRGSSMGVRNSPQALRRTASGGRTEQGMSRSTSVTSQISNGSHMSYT
The format is functional.

Another experiment deals with Activated CDC42 kinase 1 (Homo sapiens, UniProt Q07912). Nature of the experiment: Navigating the Kinome. Panel member name: ACK1. The format is functional.
Experiment [5] addresses Insulin-like growth factor 1 receptor (Homo sapiens, UniProt P08069). Nature of the experiment: Navigating the Kinome. Panel member name: IGF1R. The format is functional.
For experiment [6], the target named is Calcium/calmodulin-dependent protein kinase type II subunit alpha (Homo sapiens, UniProt Q9UQM7). Nature of the experiment: Navigating the Kinome. Panel member name: CAMK2A. The format is functional.
The subject of the next experiment is INS1. Kind of experiment: beta cell apoptosis inhibitors, cytokine rescue, dose response, luminescence, retest (AID 449756).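 Also: cell death triggered by IL-1 beta plus TNF-alpha plus IFN-gamma mixture; protective hits raise ATP signal compared with cytokine alone wells.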 Type of experiment: functional, cell-based. Particulars: Rattus norvegicus.
A further experiment concerns the target T2, Caspase-3 (Homo sapiens, UniProt P42574).
T2 sequence (P42574 whole entry): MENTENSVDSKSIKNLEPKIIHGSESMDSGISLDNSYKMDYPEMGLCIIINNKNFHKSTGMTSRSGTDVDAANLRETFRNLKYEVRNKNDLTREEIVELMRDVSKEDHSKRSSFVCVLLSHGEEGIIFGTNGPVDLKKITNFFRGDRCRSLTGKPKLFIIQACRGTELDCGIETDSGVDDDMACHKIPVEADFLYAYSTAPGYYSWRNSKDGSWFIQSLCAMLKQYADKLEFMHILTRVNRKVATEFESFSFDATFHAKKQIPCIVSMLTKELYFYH
Nature of the experiment: SAR Analysis of small molecule inhibitors of Sentrin-specific proteases (SENPs) using a Caspase-3 Selectivity assay. [Related pubchem assays (depositor defined):AID2540, AID2599, AID434973, AID489001]. The format is functional.

In experiment [7] the target is T3, Sentrin-specific protease 6 (Homo sapiens, UniProt Q9GZR1).
T3 sequence (Q9GZR1 whole entry): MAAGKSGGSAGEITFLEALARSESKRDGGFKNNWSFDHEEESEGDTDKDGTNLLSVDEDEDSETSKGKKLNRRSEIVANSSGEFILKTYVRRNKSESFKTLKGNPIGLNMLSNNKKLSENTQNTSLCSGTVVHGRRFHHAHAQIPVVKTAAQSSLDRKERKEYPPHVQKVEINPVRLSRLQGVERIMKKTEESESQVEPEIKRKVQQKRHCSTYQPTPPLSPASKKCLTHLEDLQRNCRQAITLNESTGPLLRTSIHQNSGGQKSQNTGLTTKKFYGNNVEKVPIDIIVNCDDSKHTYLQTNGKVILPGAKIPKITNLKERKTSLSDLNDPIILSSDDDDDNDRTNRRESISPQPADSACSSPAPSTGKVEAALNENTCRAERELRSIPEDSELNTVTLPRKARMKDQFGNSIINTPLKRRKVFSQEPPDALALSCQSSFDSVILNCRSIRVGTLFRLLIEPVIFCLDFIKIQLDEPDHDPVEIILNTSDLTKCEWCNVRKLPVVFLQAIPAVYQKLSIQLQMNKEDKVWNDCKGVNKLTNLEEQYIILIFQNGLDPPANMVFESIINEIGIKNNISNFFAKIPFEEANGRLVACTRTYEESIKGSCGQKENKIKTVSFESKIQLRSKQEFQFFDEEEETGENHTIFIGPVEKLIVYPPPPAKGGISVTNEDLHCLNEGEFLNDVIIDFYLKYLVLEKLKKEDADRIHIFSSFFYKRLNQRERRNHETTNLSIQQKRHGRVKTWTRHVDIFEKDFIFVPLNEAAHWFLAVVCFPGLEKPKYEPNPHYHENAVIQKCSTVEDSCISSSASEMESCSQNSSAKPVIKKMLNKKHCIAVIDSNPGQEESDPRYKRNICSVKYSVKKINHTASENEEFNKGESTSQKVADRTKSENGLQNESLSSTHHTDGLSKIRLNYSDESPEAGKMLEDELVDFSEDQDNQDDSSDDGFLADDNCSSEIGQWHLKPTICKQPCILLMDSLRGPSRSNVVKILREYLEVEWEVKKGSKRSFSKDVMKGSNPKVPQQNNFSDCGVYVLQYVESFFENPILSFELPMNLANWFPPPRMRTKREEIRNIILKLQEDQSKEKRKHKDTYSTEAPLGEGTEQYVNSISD
Nature of the experiment: SAR Analysis of small molecule inhibitors of Sentrin-specific protease 6 (SENP6) using a Luminescent assay. [Related pubchem assays (depositor defined):AID2582, AID2599]. The format is functional.

Calls of active or inactive are those of the source.

Chain of Activated CDC42 kinase 1 (Q07912 whole entry): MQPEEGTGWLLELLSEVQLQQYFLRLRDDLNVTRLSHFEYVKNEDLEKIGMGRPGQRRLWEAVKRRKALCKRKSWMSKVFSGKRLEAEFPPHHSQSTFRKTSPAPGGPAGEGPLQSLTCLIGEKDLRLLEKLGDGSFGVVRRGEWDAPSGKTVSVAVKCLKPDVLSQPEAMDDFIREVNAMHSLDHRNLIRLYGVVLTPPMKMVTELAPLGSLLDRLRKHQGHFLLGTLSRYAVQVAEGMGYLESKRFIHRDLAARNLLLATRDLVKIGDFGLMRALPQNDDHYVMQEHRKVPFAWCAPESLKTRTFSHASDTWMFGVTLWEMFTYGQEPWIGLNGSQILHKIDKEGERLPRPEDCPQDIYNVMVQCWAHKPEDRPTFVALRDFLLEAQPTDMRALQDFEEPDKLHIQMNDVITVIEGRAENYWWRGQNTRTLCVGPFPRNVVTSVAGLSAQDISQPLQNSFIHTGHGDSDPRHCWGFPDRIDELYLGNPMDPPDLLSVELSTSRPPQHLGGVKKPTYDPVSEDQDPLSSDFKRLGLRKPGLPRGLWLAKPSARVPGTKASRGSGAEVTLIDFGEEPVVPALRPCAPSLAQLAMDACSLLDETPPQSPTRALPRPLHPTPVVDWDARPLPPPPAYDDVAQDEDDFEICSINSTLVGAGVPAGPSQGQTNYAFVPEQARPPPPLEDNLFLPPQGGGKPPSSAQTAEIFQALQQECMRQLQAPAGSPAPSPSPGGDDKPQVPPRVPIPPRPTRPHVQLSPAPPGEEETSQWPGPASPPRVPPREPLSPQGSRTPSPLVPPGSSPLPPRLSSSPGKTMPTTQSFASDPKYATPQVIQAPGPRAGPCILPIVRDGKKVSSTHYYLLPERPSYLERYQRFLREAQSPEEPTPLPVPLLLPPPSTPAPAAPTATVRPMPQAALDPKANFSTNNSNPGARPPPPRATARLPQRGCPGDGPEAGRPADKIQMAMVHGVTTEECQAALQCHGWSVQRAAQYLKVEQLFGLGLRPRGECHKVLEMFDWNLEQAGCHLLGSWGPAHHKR
Chain of Serine/threonine-protein kinase PAK 4 (O96013 whole entry): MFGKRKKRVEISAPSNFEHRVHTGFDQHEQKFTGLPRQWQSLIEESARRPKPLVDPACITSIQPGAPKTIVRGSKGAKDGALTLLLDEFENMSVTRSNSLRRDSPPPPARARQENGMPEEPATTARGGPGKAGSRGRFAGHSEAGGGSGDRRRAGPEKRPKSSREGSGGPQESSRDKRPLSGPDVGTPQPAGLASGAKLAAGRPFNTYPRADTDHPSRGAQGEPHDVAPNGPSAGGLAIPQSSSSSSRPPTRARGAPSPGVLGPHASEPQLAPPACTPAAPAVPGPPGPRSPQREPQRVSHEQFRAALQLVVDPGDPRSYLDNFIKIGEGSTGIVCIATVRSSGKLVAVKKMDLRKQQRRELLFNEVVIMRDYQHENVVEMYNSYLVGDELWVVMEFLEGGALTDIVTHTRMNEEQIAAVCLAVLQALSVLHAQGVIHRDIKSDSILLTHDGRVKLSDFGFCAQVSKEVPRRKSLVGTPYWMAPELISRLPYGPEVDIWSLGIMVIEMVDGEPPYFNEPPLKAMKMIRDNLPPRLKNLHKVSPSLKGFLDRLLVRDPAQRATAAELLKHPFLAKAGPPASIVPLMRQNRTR
Chain of Tyrosine-protein kinase Lck (P06239 whole entry): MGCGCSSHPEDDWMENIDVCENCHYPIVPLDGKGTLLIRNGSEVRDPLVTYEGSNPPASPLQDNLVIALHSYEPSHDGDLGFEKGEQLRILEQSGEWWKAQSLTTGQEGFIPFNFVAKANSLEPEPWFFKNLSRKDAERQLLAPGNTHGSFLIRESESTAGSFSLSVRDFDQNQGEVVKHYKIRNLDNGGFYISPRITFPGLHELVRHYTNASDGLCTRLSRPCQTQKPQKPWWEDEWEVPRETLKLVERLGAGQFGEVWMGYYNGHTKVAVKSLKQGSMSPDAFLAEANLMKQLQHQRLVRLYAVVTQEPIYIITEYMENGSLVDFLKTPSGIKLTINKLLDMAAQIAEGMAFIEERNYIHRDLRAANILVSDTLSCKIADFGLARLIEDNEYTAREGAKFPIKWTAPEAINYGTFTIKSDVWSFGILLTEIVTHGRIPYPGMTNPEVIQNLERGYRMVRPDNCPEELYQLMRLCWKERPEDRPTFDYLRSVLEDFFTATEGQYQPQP
Chain of Calcium/calmodulin-dependent protein kinase type II subunit alpha (Q9UQM7 whole entry): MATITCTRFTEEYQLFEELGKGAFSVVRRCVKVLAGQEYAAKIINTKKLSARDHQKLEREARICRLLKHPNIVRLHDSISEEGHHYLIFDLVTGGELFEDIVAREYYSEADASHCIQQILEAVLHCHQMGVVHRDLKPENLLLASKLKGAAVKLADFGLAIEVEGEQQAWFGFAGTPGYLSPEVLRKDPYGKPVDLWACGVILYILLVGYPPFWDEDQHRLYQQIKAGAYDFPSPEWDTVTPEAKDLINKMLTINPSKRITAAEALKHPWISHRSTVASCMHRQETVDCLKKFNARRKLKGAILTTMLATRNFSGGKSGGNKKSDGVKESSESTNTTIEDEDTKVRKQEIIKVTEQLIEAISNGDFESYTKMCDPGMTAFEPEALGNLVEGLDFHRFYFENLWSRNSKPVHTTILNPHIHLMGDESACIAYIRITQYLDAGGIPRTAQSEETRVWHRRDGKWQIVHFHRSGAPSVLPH
Chain of Mitogen-activated protein kinase 9 (P45984 whole entry): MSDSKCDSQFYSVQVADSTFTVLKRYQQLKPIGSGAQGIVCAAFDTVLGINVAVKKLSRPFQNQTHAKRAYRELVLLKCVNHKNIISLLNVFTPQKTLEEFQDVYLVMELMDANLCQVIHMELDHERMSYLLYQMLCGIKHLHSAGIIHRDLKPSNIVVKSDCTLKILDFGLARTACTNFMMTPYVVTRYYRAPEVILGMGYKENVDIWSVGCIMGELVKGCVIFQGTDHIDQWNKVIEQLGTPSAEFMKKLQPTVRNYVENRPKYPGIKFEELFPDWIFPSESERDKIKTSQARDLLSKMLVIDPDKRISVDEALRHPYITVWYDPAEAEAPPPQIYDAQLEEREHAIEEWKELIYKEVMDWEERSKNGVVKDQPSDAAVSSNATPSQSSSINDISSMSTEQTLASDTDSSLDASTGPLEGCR
Chain of Insulin-like growth factor 1 receptor (P08069 31-736 limits assumed): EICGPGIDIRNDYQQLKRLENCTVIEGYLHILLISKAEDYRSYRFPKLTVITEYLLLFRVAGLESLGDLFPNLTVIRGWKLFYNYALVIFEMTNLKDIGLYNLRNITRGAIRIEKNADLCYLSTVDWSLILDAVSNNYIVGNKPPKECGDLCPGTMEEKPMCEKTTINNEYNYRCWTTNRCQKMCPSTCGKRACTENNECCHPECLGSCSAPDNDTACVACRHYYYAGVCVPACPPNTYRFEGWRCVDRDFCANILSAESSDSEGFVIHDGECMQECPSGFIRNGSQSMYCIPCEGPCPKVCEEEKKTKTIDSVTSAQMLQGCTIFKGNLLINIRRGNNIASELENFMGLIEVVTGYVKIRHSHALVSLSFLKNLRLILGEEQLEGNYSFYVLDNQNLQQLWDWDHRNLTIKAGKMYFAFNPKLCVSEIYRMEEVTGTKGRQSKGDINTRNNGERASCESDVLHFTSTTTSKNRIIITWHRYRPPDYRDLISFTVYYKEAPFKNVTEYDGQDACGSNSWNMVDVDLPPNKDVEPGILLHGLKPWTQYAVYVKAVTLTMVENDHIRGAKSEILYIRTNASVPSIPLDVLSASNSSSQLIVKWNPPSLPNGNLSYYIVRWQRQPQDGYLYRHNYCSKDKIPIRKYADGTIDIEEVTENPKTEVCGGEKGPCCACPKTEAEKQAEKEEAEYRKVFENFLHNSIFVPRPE
Chain of Insulin-like growth factor 1 receptor (P08069 741-1367 limits assumed): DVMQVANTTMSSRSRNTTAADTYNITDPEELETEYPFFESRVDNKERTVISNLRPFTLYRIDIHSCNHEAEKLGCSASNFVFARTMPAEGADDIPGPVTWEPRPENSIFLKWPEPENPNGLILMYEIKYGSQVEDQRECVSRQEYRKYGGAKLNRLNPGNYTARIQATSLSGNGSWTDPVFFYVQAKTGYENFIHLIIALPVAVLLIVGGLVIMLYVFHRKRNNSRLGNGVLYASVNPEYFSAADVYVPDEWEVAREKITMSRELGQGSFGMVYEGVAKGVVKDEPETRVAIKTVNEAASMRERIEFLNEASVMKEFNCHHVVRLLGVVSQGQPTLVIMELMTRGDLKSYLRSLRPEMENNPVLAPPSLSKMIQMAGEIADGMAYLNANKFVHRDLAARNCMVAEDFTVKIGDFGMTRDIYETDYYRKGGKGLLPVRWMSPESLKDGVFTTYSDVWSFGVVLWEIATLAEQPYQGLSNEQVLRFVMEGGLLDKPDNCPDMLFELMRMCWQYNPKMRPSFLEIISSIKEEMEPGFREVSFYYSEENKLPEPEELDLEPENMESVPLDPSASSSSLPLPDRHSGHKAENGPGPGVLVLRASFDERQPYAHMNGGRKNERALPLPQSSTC

As for `O=C1Nc2cc(-c3ccc(O)cc3)ccc2C1=Cc1ccc[nH]1`, the Ki (as a rule, the dissociation constant of the complex between target and ligand, obtained from inhibition or displacement) was 1000 nM (active) in experiment [1]; > 5010 nM (inactive) in experiment [2]; > 3980 nM (inactive) in experiment [3]; 398 nM (active) in [4]; > 3980 nM (inactive) at Activated CDC42 kinase 1; > 2510 nM (inactive) in [5]. Also, in [6], the inhibitory constant (Ki) was 2510 nM (active).
With `NC(COc1cncc(-c2ccc3c(c2)C(=Cc2ccc[nH]2)C(=O)N3)c1)Cc1ccccc1` (stereo not given), the Ki in experiment [1] was 251 nM (active); in experiment [2], 31.6 nM (active); in [3], 1260 nM (active); in experiment [4] it was 251 nM (active); on Activated CDC42 kinase 1, 1580 nM (active); in [5], 1000 nM (active). The Ki in experiment [6] is 63.1 nM (active).
Regarding `CCN(CC)CCOc1ccc2c(c1)C(=NNC(=O)c1ccccn1)c1cc(OCCN(CC)CC)ccc1-2`, the half-maximal activity concentration (AC50) (commonly the midpoint of the concentration-response curve, whichever way the signal moves) with INS1 is 2970 nM (active).
On to `COc1cc2cc(NC(C)=O)cc(NCc3ccccc3)c2cc1OC`, for which the IC50 – broadly, the point on the concentration scale where inhibition reaches its midpoint – was > 99000 nM (inactive) on Caspase-3 and 40400 nM (active) in experiment [7].
As to `O=C(NC1=C(Nc2ccc(F)cc2)C(=O)c2ccccc2C1=O)c1ccc(Cl)cc1`, the AC50 with INS1 is 5260 nM (active).
For the compound `CN(C)c1cc(N/N=C\c2ccccc2)nc(N(C)C)n1`, the concentration for half-maximal inhibition (IC50) is 79300 nM (active) at Caspase-3 and 11300 nM (active) in experiment [7].
